Reference: PMC3598812, “Evaluation of Anti-Hyperalgesic and Analgesic Effects of Two Benzodiazepines in Human Experimental Pain: A Randomized Placebo-Controlled Study” (PLoS ONE, 2013)
“Also recorded” adds a separate entry of the source.

Legend:
Format in all cases: in vivo, human
healthy male volunteers [1] = assay: Pain rating (VAS) after graded von Frey hair stimulation in the capsaicin hyperalgesic area
Protocol: Additionally, mechanical pain sensitivity was assessed using a set of seven weighted pinprick stimuli to obtain a stimulus-response function. The test was applied 1 cm inside the outer border of the pinprick hyperalgesic area, using a set of 7 graded von Frey hair mechanical stimulators with fixed stimulus intensities (custom-made at Aalborg University, Denmark). The flat contact area of the stimulators has a 0.2 mm diameter, and the 7 stimulators exert forces of 8, 16, 32, 64, 128, 256 and 512 mN. The order of stimulation was defined randomly by computer. The stimulators were applied at a rate of 2 s on/2 s off. Subjects were asked to give a pain rating for each stimulus on a 10 cm VAS. Two assessments for each stimulation were made and the mean of these 2 measurements was used for the data analysis.

healthy male volunteers [2] = assay: Cutaneous repeated (5 stimuli) electrical stimulation, temporal summation threshold; conditions: mean (SD)
Source text: (§1) The stimulus burst used for single stimulus was repeated 5 times at 2 Hz, at constant intensity. The current intensity of the 5 stimuli was increased from 1 mA in steps of 0.5 mA until the subjects felt pain during the last 2–3 of the 5 stimuli (indicating temporal summation).
Three assessments were made and the mean of these 3 measurements was used for the data analysis.

healthy male volunteers [3] = assay: Intramuscular repeated (5 stimuli) electrical stimulation pain threshold; conditions: for Pain threshold after 5 intramuscular electrical stimuli: mean (SD)
Source text: as §1
(§2) A needle was placed in the tibialis anterior muscle, 14 cm distal from the caudal end of the patella and 20 mm in depth. The same single and repeated stimulation patterns and the same procedure described for cutaneous stimulation were used.

healthy male volunteers [4] = assay: Intramuscular repeated (20 stimuli) electrical stimulation, VAS; set-up: AUC of VAS during 20 intramuscular electrical stimuli: unit not given beside the values; conditions: mean (SD); for Maximal VAS during 20 intramuscular electrical stimuli: VAS 0-10
Protocol: The stimulus burst used for single stimulus was repeated for a train of 20 pulses at 2 Hz, at an intensity corresponding to the temporal summation threshold. During this 10 s stimulation, pain intensity was continuously rated by the subject with an electronic VAS, and the area under the curve (AUC) was computed. Additionally, the maximal VAS during stimulation was recorded.
as §2

healthy male volunteers [5] = assay: Area of static hyperalgesia after intradermal capsaicin injection (512 mN von Frey hair); conditions: for Area of static hyperalgesia: single oral dose (clobazam 20 mg, clonazepam 1 mg, tolterodine 1 mg), mean (SD)
Source text: Intradermal injection of capsaicin causes a brief stinging/burning pain at the injection site followed by development of secondary hyperalgesia, i.e. hyperalgesia detected at surrounding (not injected) skin [15], [16]. Secondary hyperalgesia after intradermal capsaicin is the result of sensitization of the central nervous system, which is one of the most relevant aspects of neuroplastic changes. This model was sensitive to the action of GABAergic compounds in animal studies.
The capsaicin solution was prepared by the Hospital Pharmacy and underwent sterile filtration into sterile septum-sealed vials. The sterile solution (1 mg/ml) was placed into sterile syringes and used for intradermal injection at room temperature. The skin temperature was measured using a digital thermometer, and was 32°C+/−1 in all subjects.
Subjects remained semi-supine during the experiment. Before capsaicin injection, the skin of the forearm was cleaned using an antiseptic wipe and allowed to air dry. The injection site was marked midway between the elbow and the wrist. Using a surgical skin marker, 4 lines were drawn through the injection site, so that they intersected the corners of a regular octagon (figure 2). These lines were marked every 0.5 cm from the center to the edges using a predefined grid. […] We determined the area of hyperalgesia by adding the areas of each triangle in which hyperalgesia was recorded.
Using a 1-ml tuberculin syringe fitted with a 27-gauge disposable needle, 100 µl capsaicin were injected […] into the skin, at the intersection of the 4 vectors previously drawn. A white skin elevation appeared during injection ensuring correct injection.
Static mechanical hyperalgesia was judged to be present when the subjects reported that applying a 512 mN von Frey Hair, 5 and 30 minutes after capsaicin injection, elicited pain with an intensity of at least 4 using a numerical rating scale (NRS, whereby 0 = no pain and 10 = worst pain). Only these subjects were included in the study. In order to document pain induction, the subject recorded pain intensity at injection and 5 minutes post-injection using a 10 cm visual analogue pain scale (VAS), whereby 0 = no pain and 10 = worst pain imaginable.
The area of secondary hyperalgesia was assessed using a calibrated 512 mN von Frey hair. The punctuated probe was moved along the 8 radial lines defined above, starting approximately 6 cm away from the site of injection, at each mark in steps of 0.5 cm. The weighted von Frey hair was placed gently on the skin and the load was applied for 2 seconds. The volunteers were asked to report when the pricking sensation changed to a pain sensation. At least 4 seconds elapsed between consecutive stimuli. This procedure was repeated for each vector. The number corresponding to the marker at which sensation changes as described above was noted and the individual numbers were used to calculate the area of hyperalgesia.
The flow of the experiment is illustrated in figure 3. After training, basal values for the pain tests were determined. The study medication was given immediately after the intradermal injection of capsaicin. Thus, basal values were recorded for all tests, except for those related to capsaicin injection. Because of the relatively short duration of hyperalgesia induced by capsaicin, the recordings of basal values before drug administration would yield a too short testing procedure.

[6] = VAS 0-10, single oral dose (clobazam 20 mg, clonazepam 1 mg, tolterodine 1 mg), 30 min after medication, mean (SD)
[7] = VAS 0-10, single oral dose (clobazam 20 mg, clonazepam 1 mg, tolterodine 1 mg), 60 min after medication, mean (SD)
[8] = VAS 0-10, single oral dose (clobazam 20 mg, clonazepam 1 mg, tolterodine 1 mg), 90 min after medication, mean (SD)
[9] = VAS 0-10, single oral dose (clobazam 20 mg, clonazepam 1 mg, tolterodine 1 mg), 120 min after medication, mean (SD)
[10] = VAS 0-10, single oral dose (clobazam 20 mg, clonazepam 1 mg, tolterodine 1 mg), after flumazenil 0.2 mg iv, mean (SD)
[11] = baseline before medication, per drug session
[12] = single oral dose (clobazam 20 mg, clonazepam 1 mg, tolterodine 1 mg), 120 min after medication
[13] = single oral dose (clobazam 20 mg, clonazepam 1 mg, tolterodine 1 mg), after flumazenil 0.2 mg iv

For `CN1C(=O)CC(=O)N(c2ccccc2)c2cc(Cl)ccc21` [Clobazam], the “VAS after von Frey hair 8 mN” value (healthy male volunteers [1]; [6]) was 1.1 (1.2), the “VAS after von Frey hair 16 mN” value (healthy male volunteers [1]; [6]) was 2.0 (2.1) and the “VAS after von Frey hair 32 mN” value (healthy male volunteers [1]; [6]) was 2.0 (1.6). The “VAS after von Frey hair 64 mN” value (healthy male volunteers [1]; [6]) was 2.3 (2.0), the “VAS after von Frey hair 128 mN” value (healthy male volunteers [1]; [6]) was 2.9 (2.0) and the “VAS after von Frey hair 256 mN” value (healthy male volunteers [1]; [6]) was 3.3(2.3). For the same molecule, the “VAS after von Frey hair 512 mN” value (healthy male volunteers [1]; [6]) was 4.5 (2.5), the “VAS after von Frey hair 8 mN” value (healthy male volunteers [1]; [7]) was 1.9 (3.3) and the “VAS after von Frey hair 16 mN” value (healthy male volunteers [1]; [7]) was 2.3 (3.2). The “VAS after von Frey hair 32 mN” value (healthy male volunteers [1]; [7]) was 2.4 (2.8), the “VAS after von Frey hair 64 mN” value (healthy male volunteers [1]; [7]) was 2.5 (2.0) and the “VAS after von Frey hair 128 mN” value (healthy male volunteers [1]; [7]) was 3.4 (2.7). The “VAS after von Frey hair 256 mN” value (healthy male volunteers [1]; [7]) was 3.7 (2.6), the “VAS after von Frey hair 512 mN” value (healthy male volunteers [1]; [7]) was 4.8 (2.8) and the “VAS after von Frey hair 8 mN” value (healthy male volunteers [1]; [8]) was 1.2 (1.4). For the same molecule, the “VAS after von Frey hair 16 mN” value (healthy male volunteers [1]; [8]) was 1.4 (1.6), the “VAS after von Frey hair 32 mN” value (healthy male volunteers [1]; [8]) was 2.1 (2.2) and the “VAS after von Frey hair 64 mN” value (healthy male volunteers [1]; [8]) was 2.1 (1.9). For the same molecule, the “VAS after von Frey hair 128 mN” value (healthy male volunteers [1]; [8]) was 3.5 (2.3), the “VAS after von Frey hair 256 mN” value (healthy male volunteers [1]; [8]) was 3.9 (2.5) and the “VAS after von Frey hair 512 mN” value (healthy male volunteers [1]; [8]) was 4.9 (2.6). The “VAS after von Frey hair 8 mN” value (healthy male volunteers [1]; [9]) was 1.3 (1.4), the “VAS after von Frey hair 16 mN” value (healthy male volunteers [1]; [9]) was 1.3 (1.5) and the “VAS after von Frey hair 32 mN” value (healthy male volunteers [1]; [9]) was 1.9 (1.9). For the same molecule, the “VAS after von Frey hair 64 mN” value (healthy male volunteers [1]; [9]) was 2.7 (2.7), the “VAS after von Frey hair 128 mN” value (healthy male volunteers [1]; [9]) was 3.0 (2.6) and the “VAS after von Frey hair 256 mN” value (healthy male volunteers [1]; [9]) was 3.8 (2.6). The “VAS after von Frey hair 512 mN” value (healthy male volunteers [1]; [9]) was 4.7 (2.7), the “VAS after von Frey hair 8 mN” value (healthy male volunteers [1]; [10]) was 1.1 (1.1) and the “VAS after von Frey hair 16 mN” value (healthy male volunteers [1]; [10]) was 1.3 (1.1). The “VAS after von Frey hair 32 mN” value (healthy male volunteers [1]; [10]) was 1.9 (1.9), the “VAS after von Frey hair 64 mN” value (healthy male volunteers [1]; [10]) was 2.2 (1.7) and the “VAS after von Frey hair 128 mN” value (healthy male volunteers [1]; [10]) was 2.9 (2.1). The “VAS after von Frey hair 256 mN” value (healthy male volunteers [1]; [10]) was 3.9 (2.2), the “VAS after von Frey hair 512 mN” value (healthy male volunteers [1]; [10]) was 5.1 (2.5) and the “VAS after von Frey hair 512 mN” value (healthy male volunteers [1]; subgroup analysis (n = 8), 30 minutes, mean) was 3.2. The “VAS after von Frey hair 512 mN” value (healthy male volunteers [1]; subgroup analysis (n = 8), 120 minutes, mean) was 5.1, the “Pain threshold after 5 cutaneous electrical stimuli” value (healthy male volunteers [2]; [11]) was 8.3 (3.0) mA and the “Pain threshold after 5 cutaneous electrical stimuli” value (healthy male volunteers [2]; single oral dose (clobazam 20 mg, clonazepam 1 mg, tolterodine 1 mg), 30 min after medication) was 8.7 (3.4) mA. The “Pain threshold after 5 cutaneous electrical stimuli” value (healthy male volunteers [2]; single oral dose (clobazam 20 mg, clonazepam 1 mg, tolterodine 1 mg), 60 min after medication) was 8.7 (3.4) mA, the “Pain threshold after 5 cutaneous electrical stimuli” value (healthy male volunteers [2]; single oral dose (clobazam 20 mg, clonazepam 1 mg, tolterodine 1 mg), 90 min after medication) was 9.3 (2.9) mA and the “Pain threshold after 5 cutaneous electrical stimuli” value (healthy male volunteers [2]; [12]) was 9.9 (3.3) mA. The “Pain threshold after 5 cutaneous electrical stimuli” value (healthy male volunteers [2]; [13]) was 9.7 (3.3) mA, the “Pain threshold after 5 intramuscular electrical stimuli” value (healthy male volunteers [3]; [11]) was 1.4 (1.1) mA and the “Change in pain threshold after 5 intramuscular electrical stimuli between baseline and 120 minutes” value (healthy male volunteers [3]; main analysis, pairwise multiple comparison) was “statistically significant increase; also recorded: Significant increase in pain thresholds”. For the same molecule, the “Change in pain detection threshold after 5 intramuscular electrical stimuli from baseline to peak value” (healthy male volunteers [3]; peak value analysis, pairwise comparisons within each drug) was “significant increase; also recorded: Consistent for an increase in pain thresholds after clobazam and clonazepam”, the “Pain threshold after 5 intramuscular electrical stimuli” value (healthy male volunteers [3]; [12]) was 2.1 (2.2) mA and the “Pain threshold after 5 intramuscular electrical stimuli” value (healthy male volunteers [3]; [13]) was 2.2 (2.0) mA. For the same molecule, the “Maximal VAS during 20 intramuscular electrical stimuli” value (healthy male volunteers [4]; [11]) was 4.2 (1.5), the “Maximal VAS during 20 intramuscular electrical stimuli” value (healthy male volunteers [4]; [12]) was 4.5 (2.5) and the “Maximal VAS during 20 intramuscular electrical stimuli” value (healthy male volunteers [4]; [13]) was 4.0 (1.9). The “AUC of VAS during 20 intramuscular electrical stimuli” value (from here on “AUC”) (healthy male volunteers [4]; [11]) was 284 (149), the “AUC” value (healthy male volunteers [4]; [12]) was 309 (188) and the “AUC” value (healthy male volunteers [4]; [13]) was 292 (169). For the same molecule, the “Change in the area of static hyperalgesia over time” value (healthy male volunteers [5]; main analysis, pairwise multiple comparisons within each drug) was “no statistically significant increase”, the “Area of static hyperalgesia” value (healthy male volunteers [5]; 30 min after medication) was 39.7 (18.6) cm^2 and the “Area of static hyperalgesia” value (healthy male volunteers [5]; 60 min after medication) was 44.3 (17.1) cm^2. The “Area of static hyperalgesia” value (healthy male volunteers [5]; 90 min after medication) was 43.0 (15.0) cm^2, the “Area of static hyperalgesia” value (healthy male volunteers [5]; 120 min after medication) was 43.6 (16.5) cm^2 and the “Area of static hyperalgesia” value (healthy male volunteers [5]; after flumazenil 0.2 mg iv) was 43.8 (15.0) cm^2.
